Laboratory results reported in US11807625B2, “Capsid inhibitors for the prevention of HIV” (Gilead Sciences, Inc., priority 2019, dated 2023).
Like-named read-outs stand apart in the source and are kept apart here.

Experiment: PK of compound of Formula (Ia) after single subcutaneous dose of solution formulations in Wistar Han rats
Assay type: in vivo
Settings: male, Wistar Han, rat, plasma, sc, 50 mg/kg; for concentration at 2688 h / concentration at 3024 h / concentration at 3360 h / concentration at 3696 h / concentration at 4032 h / concentration at 4704 h: Wistar Han rats, SC 50 mg/kg, 500 mg/mL solution X (5.00% ethanol, 1.91% poloxamer 188); for AUC(0-t): male Wistar Han rats, single SC 50 mg/kg, mean ± SD
Description: Formulations containing the compound of Formula (Ia), or a pharmaceutically acceptable salt thereof, were prepared as solutions and optionally administered subcutaneously or intramuscularly to rats, rabbits, and/or dogs.
(§1) A solution of about 400 mg/mL of the compound of Formula (Ia) having 19.14 w/w % water, 40.66 w/w % PEG 300, 35.20 w/w % of a sodium salt of a compound of Formula (Ia), and 5.00% ethanol was prepared. The solution was administered subcutaneously to male Wistar Han rats at a dose level of about 50 mg/kg and dose volume of 0.125 mL/kg and the pharmacokinetic (PK) profile was determined.
as §1, with “500” for “400”, “16.64” for “19.14”, “35.36” for “40.66”, “43.00” for “35.20”, “0.1” for “0.125”
(§2) A solution of about 400 mg/mL of the compound of Formula (Ia) having 17.00 w/w % water, 36.40 w/w % PEG 300, 35.20 w/w % of a sodium salt of a compound of Formula (Ia), 5.00 w/w % ethanol, and 6.40 w/w % poloxamer 188 was prepared. The solution was administered subcutaneously to male beagle dogs at a dose level of about 12 mg/kg and male Wistar Han rats at a dose level of about 50 mg/kg. The pharmacokinetic profiles were determined, and the results for dogs are summarized in Table and Table, while the results for rats are summarized in Table and Table below.
as §2, with “500” for “400”, “14.06” for “17.00”, “30.12” for “36.40”
A solution of about 300 mg/mL of the compound of Formula (Ia) having 23.33 w/w % water, 48.99 w/w % PEG 300, 26.47 w/w % of a sodium salt of a compound of Formula (Ia), and 1.21 w/w % poloxamer 188 was prepared. The solution was administered subcutaneously to male beagle dogs at a dose level of about 6 mg/kg and male Wistar Han rats at a dose level of about 50 mg/kg. The pharmacokinetic profiles were determined, and the results for dogs are summarized in Table and Table, while the results for rats are summarized in Table and Table below.
as §2, with “18.80” for “17.00”, “40.25” for “36.40”, “34.38” for “35.20”, “1.57” for “6.40”
as §2, with “500” for “400”, “16.29” for “17.00”, “34.88” for “36.40”, “41.92” for “35.20”, “1.91” for “6.40”
A solution of about 400 mg/mL of the compound of Formula (Ia) having 20.90 w/w % water, 44.72 w/w % PEG 300, and 34.38 w/w % of a sodium salt of a compound of Formula (Ia) was prepared. […]

Work on `CC(C)(C#Cc1ccc(-c2ccc(Cl)c3c(NS(C)(=O)=O)nn(CC(F)(F)F)c23)c([C@H](Cc2cc(F)cc(F)c2)NC(=O)Cn2nc(C(F)(F)F)c3c2C(F)(F)[C@@H]2C[C@H]32)n1)S(C)(=O)=O` [compound of Formula (Ia)] yielded a concentration at 2688 h (Mean n = 3) of 0.168 µM, a concentration at 2688 h (animals #1-#3) of 0.141 µM and a concentration at 3024 h (Mean n = 3) of 0.161 µM. For the same compound, the concentration at 3024 h (animals #1-#3) was 0.127 µM, the concentration at 3360 h (Mean n = 3) was 0.157 µM and the concentration at 3360 h (animals #1-#3) was 0.122 µM. The concentration at 3696 h (Mean n = 3) was 0.134 µM, the concentration at 3696 h (animals #1-#3) was 0.121 µM and the concentration at 4032 h (Mean n = 3) was 0.135 µM. For the same compound, the concentration at 4032 h (animals #1-#3) was 0.0975 µM, the concentration at 4704 h (Mean n = 3) was 0.0888 µM and the concentration at 4704 h (animals #1-#3) was 0.0794 µM. For the same compound, the AUC(0-t) (400 mg/mL solution AA (6.25% poloxamer 188), n = 4, read-out: AUC0-24 h) was 3.44 ± 0.69 µM·h, the AUC(0-t) (400 mg/mL solution AA (6.25% poloxamer 188), n = 4, read-out: AUC0-168 h) was 32.4 ± 7.6 µM·h and the AUC(0-t) (400 mg/mL solution AA (6.25% poloxamer 188), n = 4, read-out: AUC0-336 h) was 55.2 ± 16.3 µM·h. The AUC(0-t) (400 mg/mL solution AA (6.25% poloxamer 188), n = 4, read-out: AUC0-672 h) was 98 ± 30.4 µM·h, the AUC(0-t) (400 mg/mL solution AA (6.25% poloxamer 188), n = 4, read-out: AUC0-1008 h) was 136 ± 36 µM·h and the AUC(0-t) (400 mg/mL solution AA (6.25% poloxamer 188), n = 4, read-out: AUC0-1344 h) was 167 ± 41 µM·h. It also gave an AUC(0-t) (400 mg/mL solution AA (6.25% poloxamer 188), n = 4, read-out: AUC0-2352 h) of 190 ± 45 µM·h, an AUC(0-t) (400 mg/mL solution AA (6.25% poloxamer 188), n = 4, read-out: AUC0-3024 h) of 240 ± 59 µM·h and an AUC(0-t) (400 mg/mL solution AA (6.25% poloxamer 188), n = 4, read-out: AUC0-3696 h) of 289 ± 76 µM·h. The AUC(0-t) (400 mg/mL solution W (5.00% ethanol, 1.57% poloxamer 188), n = 3, read-out: AUC0-24 h) was 2 ± 0.58 µM·h, the AUC(0-t) (400 mg/mL solution W (5.00% ethanol, 1.57% poloxamer 188), n = 3, read-out: AUC0-168 h) was 21.6 ± 4.5 µM·h and the AUC(0-t) (400 mg/mL solution W (5.00% ethanol, 1.57% poloxamer 188), n = 3, read-out: AUC0-336 h) was 45.9 ± 11.9 µM·h. For the same compound, the AUC(0-t) (400 mg/mL solution W (5.00% ethanol, 1.57% poloxamer 188), n = 3, read-out: AUC0-672 h) was 124 ± 32 µM·h, the AUC(0-t) (400 mg/mL solution W (5.00% ethanol, 1.57% poloxamer 188), n = 3, read-out: AUC0-1008 h) was 215 ± 45 µM·h and the AUC(0-t) (400 mg/mL solution W (5.00% ethanol, 1.57% poloxamer 188), n = 3, read-out: AUC0-1344 h) was 306 ± 65 µM·h. The AUC(0-t) (400 mg/mL solution W (5.00% ethanol, 1.57% poloxamer 188), n = 3, read-out: AUC0-1680 h) was 401 ± 86 µM·h, the AUC(0-t) (400 mg/mL solution W (5.00% ethanol, 1.57% poloxamer 188), n = 3, read-out: AUC0-2352 h) was 540 ± 114 µM·h and the AUC(0-t) (400 mg/mL solution W (5.00% ethanol, 1.57% poloxamer 188), n = 3, read-out: AUC0-3024 h) was 647 ± 126 µM·h. It also gave an AUC(0-t) (400 mg/mL solution W (5.00% ethanol, 1.57% poloxamer 188), n = 3, read-out: AUC0-3696 h) of 730 ± 131 µM·h, an AUC(0-t) (400 mg/mL solution W (5.00% ethanol, 1.57% poloxamer 188), n = 3, read-out: AUC0-4704 h) of 765 ± 131 µM·h and an AUC(0-t) (400 mg/mL solution Y (water, PEG 300), n = 4, read-out: AUC0-24 h) of 1.66 ± 0.32 µM·h. It also gave an AUC(0-t) (400 mg/mL solution Y (water, PEG 300), n = 4, read-out: AUC0-168 h) of 15.7 ± 4.7 µM·h.
